Here are results for one compound from patent US6369092B1, “Method for treating neoplasia by exposure to substituted benzimidazole derivatives” (Cell Pathways, Inc., priority 1998, dated 2002).

What is called melting point is the temperature of the solid-liquid transition. Compound `CCCc1nc2ccc(NC(=O)OC(C)(C)C)cc2n1Cc1ccccc1Cl` [I, 6-t-Butoxycarbonylamino-1-(2-Chlorobenzyl)-2-n-Propylbenzimidazole] came in with a melting point of 166 to 168 °C.
